Test results from ChEMBL document CHEMBL4229400, “Covalent inhibitors of nicotinamide N-methyltransferase (NNMT) provide evidence for target engagement challenges in situ” (Bioorg Med Chem Lett, 2018).
Active and inactive are the calls of the source. The calls are words filed in the database; no cut-off is given here.

How the values were obtained:
[1] = target: T1, Cytoskeleton-associated protein 4 (Homo sapiens) (UniProt Q07065); test: Binding affinity to CKAP4 cysteine residue in human 786-O cell soluble proteomic lysate at 5 uM incubated for 1 hr followed by cell lysis by IA-alkyne probe based isoTOP-ABPP analysis
T1 sequence (whole entry): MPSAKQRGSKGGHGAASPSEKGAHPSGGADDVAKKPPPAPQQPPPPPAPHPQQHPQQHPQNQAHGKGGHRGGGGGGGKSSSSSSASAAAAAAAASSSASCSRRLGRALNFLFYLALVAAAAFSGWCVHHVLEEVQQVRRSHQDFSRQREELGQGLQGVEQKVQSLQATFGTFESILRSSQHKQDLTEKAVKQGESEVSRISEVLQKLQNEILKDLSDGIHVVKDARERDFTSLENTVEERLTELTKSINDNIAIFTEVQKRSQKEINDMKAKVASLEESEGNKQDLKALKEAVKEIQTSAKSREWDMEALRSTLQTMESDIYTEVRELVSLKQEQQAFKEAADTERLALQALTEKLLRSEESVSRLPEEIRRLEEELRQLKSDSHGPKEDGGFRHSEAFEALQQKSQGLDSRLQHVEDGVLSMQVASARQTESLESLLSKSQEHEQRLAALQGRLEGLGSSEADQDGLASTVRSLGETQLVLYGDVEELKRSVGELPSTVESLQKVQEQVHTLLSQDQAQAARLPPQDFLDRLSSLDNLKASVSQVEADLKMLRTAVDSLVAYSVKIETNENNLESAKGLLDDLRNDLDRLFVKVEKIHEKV

[2] = target: T2, Nicotinamide N-methyltransferase (Homo sapiens) (UniProt P40261); test: Inhibition of SAH-rhodamine binding to NNMT in human 786-O cell soluble proteomic lysate assessed as ratio of observed rate constant to test compound concentration preincubated for 10 to 40 mins followed by SAH-rhodamine addition measured after 5 mins by Gel-based ABPP analysis
T2 sequence (whole entry): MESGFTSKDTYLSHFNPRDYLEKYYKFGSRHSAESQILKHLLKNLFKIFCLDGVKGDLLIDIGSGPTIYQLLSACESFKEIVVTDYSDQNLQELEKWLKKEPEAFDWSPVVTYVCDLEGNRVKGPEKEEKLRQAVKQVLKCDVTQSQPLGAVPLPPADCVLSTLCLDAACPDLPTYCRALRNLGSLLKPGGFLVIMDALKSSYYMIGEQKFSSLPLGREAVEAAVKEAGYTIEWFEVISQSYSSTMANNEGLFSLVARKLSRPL

[3] = target: T3, Nicotinamide N-methyltransferase (Homo sapiens, UniProt P40261); test: Inhibition of NNMT in human 786-O cell lysate using d4-nicotinamide as substrate pretreated for 1 hr at 3 mins post 20 uM SAM addition followed by substrate addition measured after 15 to 30 mins by LC-MS analysis
T3 sequence (P40261 whole entry): T2 sequence (whole entry)

[4] = target: T3, Nicotinamide N-methyltransferase; test: Inhibition of NNMT in human 786-O cell lysate using d4-nicotinamide as substrate pretreated for 1 hr at 3 mins post 80 uM SAM addition followed by substrate addition measured after 15 to 30 mins by LC-MS analysis
[5] = target: T4, Glutathione S-transferase omega-1 (Homo sapiens) (UniProt P78417); test: Binding affinity to GSTO1 cysteine residue in human 786-O cell soluble proteomic lysate at 5 uM incubated for 1 hr followed by cell lysis by IA-alkyne probe based isoTOP-ABPP analysis
T4 sequence (whole entry): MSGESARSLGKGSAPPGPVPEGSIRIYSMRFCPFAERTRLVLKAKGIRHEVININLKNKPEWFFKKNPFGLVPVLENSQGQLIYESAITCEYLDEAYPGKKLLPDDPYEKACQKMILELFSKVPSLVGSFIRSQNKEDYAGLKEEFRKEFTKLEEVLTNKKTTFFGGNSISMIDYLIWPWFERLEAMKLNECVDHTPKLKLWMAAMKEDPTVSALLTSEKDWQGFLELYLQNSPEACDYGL

[6] = target: T4, Glutathione S-transferase omega-1 (Homo sapiens); test: Binding affinity to GSTO1 C32 residue in human 786-O cell lysate at 5 uM incubated for 1 hr followed by cell lysis by IA-alkyne probe based isoTOP-ABPP analysis
[7] = target: T5, Thioredoxin domain-containing protein 17 (Homo sapiens) (UniProt Q9BRA2); test: Binding affinity to TXNDC17 cysteine residue in human 786-O cell lysate at 5 uM incubated for 1 hr followed by cell lysis by IA-alkyne probe based isoTOP-ABPP analysis
T5 sequence (whole entry): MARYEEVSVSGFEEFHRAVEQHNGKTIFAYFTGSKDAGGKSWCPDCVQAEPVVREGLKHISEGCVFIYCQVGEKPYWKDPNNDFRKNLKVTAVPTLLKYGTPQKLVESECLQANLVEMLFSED

Zyxin (Homo sapiens) = target: T6, Zyxin (Homo sapiens) (UniProt Q15942); test: Binding affinity to ZYX cysteine residue in human 786-O cell soluble proteomic lysate at 5 uM incubated for 1 hr followed by cell lysis by IA-alkyne probe based isoTOP-ABPP analysis
T6 sequence (whole entry): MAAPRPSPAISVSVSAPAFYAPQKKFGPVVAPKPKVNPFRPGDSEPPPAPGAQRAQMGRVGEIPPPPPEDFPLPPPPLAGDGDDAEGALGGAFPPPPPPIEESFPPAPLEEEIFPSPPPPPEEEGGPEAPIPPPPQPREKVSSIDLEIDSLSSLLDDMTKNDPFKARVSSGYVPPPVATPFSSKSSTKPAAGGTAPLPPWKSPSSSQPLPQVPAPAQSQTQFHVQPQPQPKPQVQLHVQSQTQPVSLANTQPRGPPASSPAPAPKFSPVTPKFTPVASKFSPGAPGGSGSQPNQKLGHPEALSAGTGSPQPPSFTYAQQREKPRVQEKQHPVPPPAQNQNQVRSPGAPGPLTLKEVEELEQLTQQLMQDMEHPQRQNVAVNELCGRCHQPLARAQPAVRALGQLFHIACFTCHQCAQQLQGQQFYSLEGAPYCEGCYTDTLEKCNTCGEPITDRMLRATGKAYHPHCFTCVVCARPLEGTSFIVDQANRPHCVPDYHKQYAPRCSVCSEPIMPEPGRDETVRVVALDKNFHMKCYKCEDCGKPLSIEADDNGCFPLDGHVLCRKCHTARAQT

Compound	Activity [1]	Ratio [2]	IC50 [3]	IC50 [4]	Activity [5]	Activity [6]	Activity [7]	Activity (Zyxin (Homo sapiens))
CC(C)CCN(C(=O)CCl)c1cc(C(=O)NCc2cccc([N+](=O)[O-])c2)cc(C(F)(F)F)c1	Active	285 M⁻¹ s⁻¹	6.2 µM	39 µM	Active	Active	Active	
O=C(Nc1cccnc1Cl)c1cc(N(CCCc2ccccc2)C(=O)CCl)cc(C(F)(F)F)c1								Active
